According to patent US20170334899A1, “AMINO-SUBSTITUTED ISOTHIAZOLES” (Bayer Pharma Aktiengesellschaft, priority 2014, published 2017):

system: HeLa; assay: Proliferation assay (crystal violet), HeLa; type: cell-based; settings: Homo sapiens, HeLa, 96 h, HeLa cells; 4 days incubation; crystal violet staining; read-out: IC50 inhibition of proliferation, HeLa
Procedure, shortened: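 Four-day compound exposure (0.001-10 μM, 0.5% DMSO final) began 24 h after seeding 1000-5000 cells/well in medium with 10% fetal calf serum. Cell number read by crystal violet absorbance at 595 nm, scaled between day-zero plate and untreated control; 4-parameter fit gave IC50.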

Row | Compound | IC50 [nM]
1 | Cc1nsc(Nc2cnc(C(F)(F)F)cn2)c1C(=O)Nc1ccc(O[C@@H]2CN(CC(F)(F)F)C[C@@H]2F)nc1 [Example 410, N-(6-{[(3R,4S)-4-Fluoro-1-(2,2,2-trifluoroethyl)pyrrolidin-3-yl]oxy}pyridin-3-yl)-3-methyl-5-{[5-(trifluoromethyl)pyrazin-2-yl]amino}-1,2-thiazole-4-carboxamide] | 170
2 | Cc1nsc(Nc2cnc(C(F)(F)F)cn2)c1C(=O)Nc1ccc(O[C@@H]2CN(CC(F)F)C[C@@H]2F)nc1 [Example 411, N-(6-{[(3R,4S)-1-(2,2-Difluoroethyl)-4-fluoropyrrolidin-3-yl]oxy}pyridin-3-yl)-3-methyl-5-{[5-(trifluoromethyl)pyrazin-2-yl]amino}-1,2-thiazole-4-carboxamide] | 170
3 | Cc1nsc(Nc2cnc(C(F)(F)F)cn2)c1C(=O)Nc1ccc(F)c(O[C@@H]2CCN(CC(F)F)C2)c1 [Example 412, N-(3-{[(3R)-1-(2,2-Difluoroethyl)pyrrolidin-3-yl]oxy}-4-fluorophenyl)-3-methyl-5-{[5-(trifluoromethyl)pyrazin-2-yl]amino}-1,2-thiazole-4-carboxamide] | 260
4 | Cc1nsc(Nc2cnc(C(F)(F)F)cn2)c1C(=O)Nc1ccc(F)c(O[C@@H]2CCN(CC(F)(F)F)C2)c1 [Example 413, N-(4-Fluoro-3-{[(3R)-1-(2,2,2-trifluoroethyl)pyrrolidin-3-yl]oxy}phenyl)-3-methyl-5-{[5-(trifluoromethyl)pyrazin-2-yl]amino}-1,2-thiazole-4-carboxamide] | 270
5 | Cc1nsc(Nc2cnc(C(F)(F)F)cn2)c1C(=O)Nc1ccc(F)c(O[C@@H]2CCN(CCC(F)(F)F)C2)c1 [Example 414, N-(4-Fluoro-3-{[(3R)-1-(3,3,3-trifluoropropyl)pyrrolidin-3-yl]oxy}phenyl)-3-methyl-5-{[5-(trifluoromethyl)pyrazin-2-yl]amino}-1,2-thiazole-4-carboxamide] | 290
6 | Cc1nsc(Nc2cnc(C(F)(F)F)cn2)c1C(=O)Nc1ccc(F)c(O[C@H]2CCN(CCC(F)(F)F)C2)c1 [Example 415, N-(4-Fluoro-3-{[(3S)-1-(3,3,3-trifluoropropyl)pyrrolidin-3-yl]oxy}phenyl)-3-methyl-5-{[5-(trifluoromethyl)pyrazin-2-yl]amino}-1,2-thiazole-4-carboxamide] | 350
7 | Cc1nsc(Nc2cnc(C(F)(F)F)cn2)c1C(=O)Nc1ccc(F)c(O[C@H]2CCN(CC(F)(F)F)C2)c1 [Example 416, N-(4-Fluoro-3-{[(35)-1-(2,2,2-trifluoroethyl)pyrrolidin-3-yl]oxy}phenyl)-3-methyl-5-{[5-(trifluoromethyl)pyrazin-2-yl]amino}-1,2-thiazole-4-carboxamide] | 250
8 | Cc1nsc(Nc2cnc(C(F)(F)F)cn2)c1C(=O)Nc1ccc(F)c(O[C@H]2CCN(CC(F)F)C2)c1 [Example 417, N-(3-{[(3S)-1-(2,2-Difluoroethyl)pyrrolidin-3-yl]oxy}-4-fluorophenyl)-3-methyl-5-{[5-(trifluoromethyl)pyrazin-2-yl]amino}-1,2-thiazole-4-carboxamide] | 410
9 | Cc1nsc(Nc2cnc(C(F)(F)F)cn2)c1C(=O)Nc1ccc(F)c(OC[C@H]2CCCN(CCC(F)(F)F)C2)c1 [Example 418, N-(4-Fluoro-3-{[(3S)-1-(3,3,3-trifluoropropyl)piperidin-3-yl]methoxy}phenyl)-3-methyl-5-{[5-(trifluoromethyl)pyrazin-2-yl]amino}-1,2-thiazole-4-carboxamide] | 1200
10 | Cc1nsc(Nc2cnc(C(F)(F)F)cn2)c1C(=O)Nc1ccc(F)c(OC[C@H]2CCCN(CC(F)(F)F)C2)c1 [Example 419, N-(4-Fluoro-3-{[(3S)-1-(2,2,2-trifluoroethyl)piperidin-3-yl]methoxy}phenyl)-3-methyl-5-{[5-(trifluoromethyl)pyrazin-2-yl]amino}-1,2-thiazole-4-carboxamide] | 760
11 | Cc1nsc(Nc2cnc(C(F)(F)F)cn2)c1C(=O)Nc1ccc(CCC2CCN(CCC(F)(F)F)CC2)nc1 [Example 420, 3-Methyl-5-{[5-(trifluoromethyl)pyrazin-2-yl]amino}-N-(6-{2-[1-(3,3,3-trifluoro-propyl)piperidin-4-yl]ethyl}pyridin-3-yl)-1,2-thiazole-4-carboxamide] | 630
12 | CCN1CC[C@H](Oc2ccc(NC(=O)c3c(C)nsc3Nc3cnc(C(F)(F)F)cn3)cn2)[C@H](F)C1 [Example 424, N-(6-{[(3R,4S)-1-Ethyl-3-fluoropiperidin-4-yl]oxy}pyridin-3-yl)-3-methyl-5-{[5-(trifluoromethyl)pyrazin-2-yl]amino}-1,2-thiazole-4-carboxamide] | 530
13 | Cc1nsc(Nc2cnc(C(F)(F)F)cn2)c1C(=O)Nc1ccc(OCCNC(=O)C(F)(F)F)nc1 [Example 425, 3-Methyl-N-(6-{2-[(trifluoroacetyl)amino]ethoxy}pyridin-3-yl)-5-{[5-(trifluoro-methyl)pyrazin-2-yl]amino}-1,2-thiazole-4-carboxamide] | 1300
14 | Cc1nsc(Nc2cnc(C(F)(F)F)cn2)c1C(=O)Nc1ccc(F)c(OCCCNC(=O)C(F)(F)F)c1 [Example 427, N-(4-Fluoro-3-{3-[(trifluoroacetyl)amino]propoxy}phenyl)-3-methyl-5-{[5-(trifluoro-methyl)pyrazin-2-yl]amino}-1,2-thiazole-4-carboxamide] | 860
15 | Cc1nsc(Nc2cnc(C(F)(F)F)cn2)c1C(=O)Nc1ccc(OCCCNC(=O)C(F)(F)F)nc1 [Example 428, 3-Methyl-N-(6-{3-[(trifluoroacetyl)amino]propoxy}pyridin-3-yl)-5-{[5-(trifluoro-methyl)pyrazin-2-yl]amino}-1,2-thiazole-4-carboxamide] | 1300
16 | Cc1nsc(Nc2cnc(C(F)(F)F)cn2)c1C(=O)Nc1ccc(OCCN(C)C(=O)OC(C)(C)C)nc1 [Example 429, tert-Butyl methyl{2-[(5-{[(3-methyl-5-{[5-(trifluoromethyl)pyrazin-2-yl]amino}-1,2-thiazol-4-yl)carbonyl]amino}pyridin-2-yl)oxy]ethyl}carbannate] | 260
17 | Cc1nsc(Nc2cncc(C(F)(F)F)n2)c1C(=O)Nc1ccc(OCCN(C)C(=O)OC(C)(C)C)nc1 [Example 430, tert-Butyl methyl{2-[(5-{[(3-methyl-5-{[6-(trifluoromethyl)pyrazin-2-yl]amino}-1,2-thiazol-4-yl)carbonyl]amino}pyridin-2-yl)oxy]ethyl}carbannate] | 920
18 | Cc1nsc(Nc2cnc(C(F)(F)F)cn2)c1C(=O)Nc1ccc(OC2CCNCC2)c(F)c1 [Example 431, N-[3-Fluoro-4-(piperidin-4-yloxy)phenyl]-3-methyl-5-{[5-(trifluoromethyl)pyrazin-2-yl]amino}-1,2-thiazole-4-carboxamide] | > 10000
19 | Cc1nsc(Nc2cnc3ccccc3n2)c1C(=O)Nc1cccc(NC(=O)C(F)(F)F)c1 [Example 432, 3-Methyl-5-(quinoxalin-2-ylamino)-N-{3-[(trifluoroacetyl)amino]phenyl}-1,2-thiazole-4-carboxamide] | > 10000
20 | Cc1nsc(Nc2ccc(C#N)cn2)c1C(=O)Nc1ccc(Nc2ccc(F)c(F)c2)nc1 [Example 433, 5-[(5-Cyanopyridin-2-yl)amino]-N-{6-[(3,4-difluorophenyl)amino]pyridin-3-yl}-3-methyl-1,2-thiazole-4-carboxamide] | 5400
21 | Cc1nsc(Nc2cnc3ccccc3n2)c1C(=O)Nc1ccc(NCCN(C)C(=O)OC(C)(C)C)nc1 [Example 434, tert-Butyl methyl(2-{[5-({[3-methyl-5-(quinoxalin-2-ylamino)-1,2-thiazol-4-yl]carbonyl}amino)pyridin-2-yl]amino}ethyl)carbamate] | 8000
22 | CC(=O)Nc1ccc(NC(=O)c2c(C)nsc2Nc2ccc(C#N)cn2)cn1 [Example 435, N-(6-Acetamidopyridin-3-yl)-5-[(5-cyanopyridin-2-yl)amino]-3-methyl-1,2-thiazole-4-carboxamide] | > 10000
